Test results reported in patent US8022051B2, “Composition for protection and improvement of skin, or reinforcing skin barrier function comprising phosphatidylserine” (Doosan Corporation, priority 2004, dated 2011).

What was measured:
[1] = system: erythema formation due to UVB on arm inside parts of examinees; experiment: Suppression of skin damage (erythema formation) due to ultraviolet irradiation in examinees; format: in vivo, human; conditions: 0.5% aqueous solution, 30 μl pre-applied; UVB 2, 3 and 4 MED; compared to the control group; FIG. 1
Protocol: In order to examine a skin damage (inflammatory response)-alleviating effect of the phosphatidylserine of the invention, which stimulation results from the ultraviolet irradiation, a following experiment was performed. At this time, the skin stimulation (inflammatory response) due to the ultraviolet irradiation was measured with an erythema formation level.
First, it was measured minimal erythma dosage (MED) in arm inside parts of examinees (28 years old or more, 10 women and men, respectively). An aqueous solution including phosphatidylserine 0.5% (aqueous solution phase containing 5% PEG 300; PEG300, Sigma, US) was previously applied to the arm inside parts of the examinees in an amount of 30 μl which were then irradiated with UVB (Sankyo Denki G15T8E sunlamps UV-B, Japan) in an intensity of 2 MED (78 mj/cm^2), 3 MED (117 mj/cm^2) and 4 MED (156 mj/cm^2) to measure suppression degrees of the erythema formation. At this time, a group for which the phosphatidylserine was not treated was used as a control group.

[2] = system: skin keratinocyte cell line (HaCaT) and normal human keratinocytes; experiment: Reduction of inflammatory response induced by ultraviolet irradiation in skin keratinocytes (ELISA of TNF-a, IL-6, IL-1alpha); format: cell-based; conditions: 25 mJ/cm^2 UVB; phosphatidylserine 20 and 40 μM, WY-14643 200 μM; 24 hours; FIG. 3
Protocol: In order to examine an inflammatory response-reducing effect of the phosphatidylserine of the invention in the skin keratinocyte, which response results from the ultraviolet irradiation, a following experiment was performed in accordance with a method disclosed in the literature (Stefan et. al., The Journal of Investigate Dermatology, 117, pp 1430-1436, 2001).
First, the skin keratinocyte cell line (HaCaT, a gift from Yonsei univeritym, Korea) was seeded to a 35 mm^2 of cell culture dish in an amount of 3×10^5 cells/dish and then cultured for a day. Next day, the culture medium was removed and the cell was washed with 1× phosphate-buffered saline (PBS), 700 μl of 1×PBS was added to each of the dishes, it was irradiated 25 mJ/cm^2 UVB and then PBS was removed. […] Next day, the culture medium was collected and then amounts of TNF-a and IL-6 which have been known as inflammatory cytokines were measured with an enzyme-linked immunosorbent assay (ELISA) method. In addition, in order to check that there occurred a similar inflammatory response reducing effect also in the normal human skin keratinocyte, an experiment was performed in the above-mentioned manner using normal human keratinocytes (a gift from Dong-guk University) instead of the HaCaT cell line and then an amount of IL-1alpha secreted to the culture medium was measured with the ELISA.

[3] = system: normal human keratinocytes; experiment: Differentiation promoting effect in skin keratinocytes (western blot of involucrin and transglutaminase); format: cell-based; conditions: phosphatidylserine 20 and 40 μM, calcium 1.2 mM, clofibrate 200 and 400 μM; 24 hours; FIG. 5
Protocol: In order to examine a differentiation promoting effect in the skin keratinocytes by the phosphatidylserine of the invention, a following experiment was performed. First, the normal human keratinocytes (a gift from Dong-guk University) cultured in the KSFM (Keratinocyte-SFM; Gibco BRL/Life Technologies, USA) were seeded to the 35 mm^2 cell culture dish in an amount of 1.5×10^5 cells/dish and then cultured for a day. Next day, the culture medium was removed and a new culture medium containing 20 and 40 μM of phosphatidylserine aqueous solution, 1.2 mM calcium aqueous solution and 200 and 400 μM of clofibrate (Sigma, USA) added thereto was added and cultured for 24 hours. Next day, in order to make sure of a differentiation of the keratinocyte, a morphology change of the cell was checked with a phase contrast microscope (Nikon, Japan) and a photograph was taken with a digital camera attached to the microscope. In addition, a western blot was performed to check the protein expression amount of involucrin and transglutaminase, which have been known as a differentiation-marker proteins of the keratinocyte peculiar to the keratin. 500 μl of a lysis buffer having 2% sodium dodecyl sulfate (SDS) added thereto wad added and the cells were collected with a cell scrapper, so that cell lysate only was obtained. […]

[4] = system: hairless mouse; experiment: Skin barrier function restoration (TEWL) after tape stripping in hairless mice, oral administration; format: in vivo; conditions: 0.8 mg/mouse once a day for three weeks, up to 24 hours, compared to mouse not given phosphatidylserine, FIG. 9
Protocol: In this example 9, it was examined a difference of water loss restoration rates in a group to which the phosphatidylserine was administrated and a group to which the phosphatidylserine was not administrated, using the hairless mouse, so as to examine an effect of the phosphatidylserine on the skin barrier function restoring reinforcement.
First, a solution in which the phosphatidylserine (DS-PS, Doosan, Korea) was dispersed in a tertiary distilled water in a concentration of 400 mg/100 ml was used as a test material. It was prepared 10 hairless induced mice which were […] (Japan SLC Inc., Shizuoka, Japan). The solution was orally administrated to 5 mice of them in a dosage of 0.8 mg phosphatidylserine/mouse once a day and the tertiary distilled water was orally administrated to the other 5 mice. The medication period was three weeks. After that, it was measured a water evaporation loss for both sides of the backs of the hairless mice using a TEWL apparatus (TEWAMETER, TW210, Germany) (normal skin: about 10±2 g/hm^2). A Scotch tape was attached to the same positions and then cleared. […] After that, it was measured the water evaporation losses as time went by (i.e., before the injury, immediately after the injury, after 6 hours, after 9 hours and after 24 hours) to check the restoration rate of the skin barrier.

## phosphatidylserine
[1]
  erythema formation: considerably suppressed
[2]
  inflammatory response increased due to the ultraviolet irradiation (TNF-a, IL-6, IL-1alpha amounts): considerably alleviated
[3]
  protein expression of involucrin and transglutaminase: rapidly increased the expressions of the proteins
[4]
  restoration rate of the skin barrier function (TEWL): higher restoration rate
